# According to patent publication US20250381190A1, “THERAPEUTIC COMBINATIONS OF CAPIVASERTIB AND VENETOCLAX” (AstraZeneca AB, priority 2022, published 2025):
# Tests used:
# [1] = tested on: SUDHL4 human GCB-DLBCL tumor cells; experiment: SUDHL4 xenograft efficacy (tumor volume, TGI, regression); format: in vivo, female CB.17 SCID mice; conditions: Study 1
# Experimental: (§1) For the experiments described below, SUDHL4 human GCB-DLBCL tumor cells (10×10^6/mouse) were implanted subcutaneously into female CB.17 SCID mice. Mice were randomized into groups of 5 for efficacy and tolerability assessments based on tumor volume and treated with either vehicles (10% DMSO/25% Kleptose pH=5 (Vehicle 1) and 10% ethanol/30% PEG 400/60% Phosal PG-50 (Vehicle 2)), 130 mg/kg or 45 mg/kg capivasertib, 100 mg/kg venetoclax or the combination of capivasertib and venetoclax. Capivasertib was formulated in 10% DMSO/25% Kleptose pH=5 and venetoclax was formulated in 10% ethanol/30% PEG 400/60% Phosal PG-50. All agents were dosed by oral gavage at a 5 ml/kg dose volume according to schedules described, following tumor cell implantation. Tumor length and width was measured by caliper and tumor volume was calculated using the formula (length×width^2)*π/6.
# [2] = Tolerability (body weight change) in SUDHL4 tumor-bearing mice; format: in vivo, female CB.17 SCID mice; conditions: Study 1
# Experimental: as §1
# DLBCL cell lines = experiment: In vitro activity against DLBCL cell lines; format: cell-based; conditions: used individually
# [3] = capivasertib 130 mg/kg PO BID 10/14 4 days on/3 days off x 22 days
# [4] = venetoclax 100 mg/kg PO QD (continuous) x 22 days
Structure (SMILES),"Regression [1, 3]","TGI [1, 3]","TGI ([1]; capivasertib 130 mg/kg PO BID 10/14 4 days on/3 days off x 22 days, listed as capivasertib)","Max avg body weight loss [2, 3]",Activity against DLBCL cell lines (DLBCL cell lines),"Regression [1, 4]","TGI [1, 4]","TGI ([1]; venetoclax 100 mg/kg PO QD (continuous) x 22 days, listed as venetoclax)","Max avg body weight loss [2, 4]"
"NC1(C(=O)N[C@@H](CCO)c2ccc(Cl)cc2)CCN(c2ncnc3[nH]ccc23)CC1 [Capivasertib, (S)-4-amino-N-(1-(4-chlorophenyl)-3-hydroxypropyl)-1-(7H-pyrrolo[2,3-d]pyrimidin-4-yl)piperidine-4-carboxamide]",0%,82%,82%,6%,have activity,,,,
"CC1(C)CCC(CN2CCN(c3ccc(C(=O)NS(=O)(=O)c4ccc(NCC5CCOCC5)c([N+](=O)[O-])c4)c(Oc4cnc5[nH]ccc5c4)c3)CC2)=C(c2ccc(Cl)cc2)C1 [Venetoclax, 4-(4-{[2-(4-chlorophenyl)-4,4-dimethylcyclohex-1-en-1-yl]methyl}piperazin-1-yl)-N-({3-nitro-4-[(tetrahydro-2H-pyran-4-ylmethyl)amino]phenyl}sulfonyl)-2-(1H-pyrrolo[2,3-b]pyridin-5-yloxy)benzamide]",,,,,have activity,0%,42%,42%,2%
